Measurements taken from US8865750B2, “Small molecule inhibitors of RGS proteins” (The Regents of The University of Michigan, priority 2011, dated 2014).
Converted amounts (≈) assume the structure as drawn.

How the values were obtained:
[1] = system: δ-opioid receptor; experiment: cAMP accumulation in SH-SY5Y cells, SNC80; assay type: cell-based
Procedure: (§1) Accumulated cAMP was measured by radioimmunoassay in a 10-15 μl aliquot of the supernatant from each sample following the manufacturer's instructions (cAMP radioimmunoassay kit from GE Healthcare, Piscataway, N.J.). Data are from four separate experiments, each carried out in duplicates and calculated as percent inhibition.
as §1, with “Cells were plated into 24-well plates to reach ˜90% confluency on the day of assay and washed once with fresh serum-free medium. […] Accumulated” for “Accumulated”

[2] = biological target: 107C RGS8 (C160S) (Homo sapiens (Human), UniProt P57771, C160S); experiment: FCPIA: RGS8 mutant 107C; assay type: binding
Sequence of 107C RGS8 (C160S) (P57771 other isoform, or with tags, fused parts or gaps C160S): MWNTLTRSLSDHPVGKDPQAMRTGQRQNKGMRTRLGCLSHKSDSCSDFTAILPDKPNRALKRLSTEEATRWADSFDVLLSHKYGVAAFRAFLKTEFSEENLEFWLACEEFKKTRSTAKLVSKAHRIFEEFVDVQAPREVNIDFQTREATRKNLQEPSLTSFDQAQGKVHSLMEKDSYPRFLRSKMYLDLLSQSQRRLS
Procedure: (§2) With the exception of RGS8 mutants, all RGS and G proteins were prepared as previously described (Roman, D., et al., Mol Pharmacol). […] Mutagenesis was performed using the QuickChange Multi-site Directed Mutagenesis kit (Agilent, La Jolla Calif.).
(§3) This protein only contains two cysteines in the RGS homology domain, making it a simpler model system to study than other RGS proteins. Each cysteine from the RGS8 RGS homology (RH) domain was individually mutated to serine and the activity of the compound was analyzed via FCPIA (FIG. 6).

[3] = Solubility experiments; assay type: physicochemical; settings: water; aqueous
Procedure: Compounds were diluted to 100 mM in DMSO and the further diluted to 500 μM in H2O, vortexed and centrifuged for 10 minutes at 13,000×g at ambient temperature.

[4] = biological target: 160C RGS8 (C107S) (Homo sapiens (Human), UniProt P57771, C107S); experiment: FCPIA: RGS8 mutant 160C; assay type: binding
Sequence of 160C RGS8 (C107S) (P57771 other isoform, or with tags, fused parts or gaps C107S): as the sequence (P57771 other isoform, or with tags, fused parts or gaps C160S) above, with C107S, S160C counted along it
Procedure: as §2, §3

[5] = system: HEK-293 cells; experiment: WST-1 cell viability; assay type: cell-based; settings: up to 100 μM, overnight
Procedure: WST-1 Cell Viability Studies:
HEK-293 cells were plated to a density of 30,000/well in 96-well plates and grown for 48 hours in Dulbecco's Modified Eagle Medium (DMEM) containing 10% fetal bovine serum and Penicillin (100 units/ml)-Streptomycin (100 μg/ml) under 5% CO2 at 37° C. Compound treatment was performed overnight in DMEM containing 0.1% bovine serum albumin under 5% CO2 at 37° C. After compound incubation ten microliters of the WST-1 reagent (Hoffmann-La Roche, Switzerland) was added to every well and the cells were incubated for 1 hour under 5% CO2 at 37° C. Absorbance was measured at 450 nm using a Victor II plate reader (Perkin-Elmer, Picastaway, N.J.).

[6] = biological target: RGS8 (Homo sapiens (Human), UniProt P57771); experiment: FCPIA: Gαo binding to RGS8
Sequence of RGS8 (P57771 other isoform, or with tags, fused parts or gaps): as the sequence (P57771 other isoform, or with tags, fused parts or gaps C160S) above, with S160C counted along it
Text: FCPIA Dose Response and Reversibility Experiments:

inhibition at 20 µM ([2]; 20 μM, all time points, read-out: irreversible inhibition of 107C RGS8): ~20%
IC50 ([2]; FIG. 6): 46500 nM
solubility [3]: ~100 µM (≈ 31.6 µg/mL)
inhibition at 20 µM ([4]; 20 μM, all time points, read-out: irreversible inhibition of 160C RGS8): ~50%
IC50 ([4]; FIG. 6): 710 nM
IC50 ([6]; Table 2, mean of two independent FCPIA experiments, read-out: RGS8 IC50): 1100 nM
Ki ([6]; read-out: experimentally derived Ki value): 300 nM
SMILES: Cc1ccc(-n2sc(=O)n(Cc3ccc(F)cc3)c2=O)cc1 [CCG-50014, 4-[(4-fluorophenyl)methyl]-2-(4-methylphenyl)-1,2,4-thiadiazolidine-3,5-dione]
inhibition of forskolin-stimulated adenylate cyclase by SNC-80 with compound ([1]; 100 nM SNC-80 + 100 μM CCG-50014): 44%
effect on forskolin-stimulation of cAMP production ([1]; 100 μM): no effect
cell viability (WST-1) [5]: did not reduce cell viability below control levels
